Assay results reported in ChEMBL document CHEMBL1759870, “Identification, structural properties and chelating capacity of miltipolone as a broad-spectrum inhibitor to cancer cells” (Eur J Med Chem, 2011).
The source made the active and inactive calls.

Key:
[1] = tested on: MCF7; assay: Antiproliferative activity against human MCF7 cells at 2 uM after 96 hrs by MTT assay in presence of 1 uM of ferrous ion; format: functional, cell-based
[2] = tested on: Jurkat; assay: Antiproliferative activity against human Jurkat cells at 2 uM after 96 hrs by MTT assay in presence of 1 uM of ferrous ion; format: functional, cell-based
[3] = tested on: A-375; assay: Antiproliferative activity against human A375 cells at 2 uM after 96 hrs by MTT assay in presence of 1 uM of ferrous ion; format: functional, cell-based
[4] = tested on: NCI-N87; assay: Antiproliferative activity against human NCI-N87 cells at 2 uM after 96 hrs by MTT assay in presence of 1 uM of ferrous ion; format: functional, cell-based
[5] = tested on: PANC-1; assay: Antiproliferative activity against human PANC1 cells at 2 uM after 96 hrs by MTT assay in presence of 1 uM of ferrous ion; format: functional, cell-based
[6] = tested on: HT-1080; assay: Antiproliferative activity against human HT1080 cells at 2 uM after 96 hrs by MTT assay in presence of 1 uM of ferrous ion; format: functional, cell-based
[7] = tested on: HeLa; assay: Antiproliferative activity against human HeLa cells at 2 uM after 96 hrs by MTT assay in presence of 1 uM of ferrous ion; format: functional, cell-based
[8] = tested on: HepG2; assay: Antiproliferative activity against human HepG2 cells at 2 uM after 96 hrs by MTT assay in presence of 1 uM of ferrous ion; format: functional, cell-based
[9] = tested on: A549; assay: Antiproliferative activity against human A549 cells at 2 uM after 96 hrs by MTT assay in presence of 1 uM of ferrous ion; format: functional, cell-based
[10] = tested on: HUVEC; assay: Antiproliferative activity against human HUVEC cells after 96 hrs by MTT assay; format: cell-based
[11] = tested on: A549; assay: Antiproliferative activity against human A549 cells after 96 hrs by MTT assay; format: functional, cell-based; conditions: A549, 96 h
[12] = tested on: Bel-7402; assay: Antiproliferative activity against human Bel7402 cells after 96 hrs by MTT assay; format: functional, cell-based; conditions: Bel-7402, 96 h
[13] = tested on: HepG2; assay: Antiproliferative activity against human HepG2 cells after 96 hrs by MTT assay; format: functional, cell-based; conditions: HepG2, 96 h
[14] = tested on: HeLa; assay: Antiproliferative activity against human HeLa cells after 96 hrs by MTT assay; format: functional, cell-based
[15] = tested on: MCF7; assay: Antiproliferative activity against human MCF7 cells after 96 hrs by MTT assay; format: functional, cell-based; conditions: MCF7, 96 h
[16] = tested on: Jurkat; assay: Antiproliferative activity against human Jurkat cells after 96 hrs by MTT assay; format: functional, cell-based
[17] = tested on: HT-1080; assay: Antiproliferative activity against human HT1080 cells after 96 hrs by MTT assay; format: functional, cell-based; conditions: HT-1080, 96 h
[18] = tested on: A-375; assay: Antiproliferative activity against human A375 cells after 96 hrs by MTT assay; format: functional, cell-based; conditions: A-375, 96 h
[19] = tested on: NCI-N87; assay: Antiproliferative activity against human NCI-N87 cells after 96 hrs by MTT assay; format: functional, cell-based; conditions: NCI-N87, 96 h
[20] = tested on: PANC-1; assay: Antiproliferative activity against human PANC1 cells after 96 hrs by MTT assay; format: functional, cell-based; conditions: PANC-1, 96 h
[21] = Metal chelating activity of the compound assessed as ferrous ion complex formation in doble-distiled water by UV-vis spectrometry; format: functional
[22] = Metal chelating activity of the compound assessed as ferric ion complex formation in doble-distiled water by UV-vis spectrometry; format: functional
[23] = Metal chelating activity of the compound assessed as cobalt complex formation in doble-distiled water by UV-vis spectrometry; format: functional
[24] = Metal chelating activity of the compound assessed as zinc complex formation in doble-distiled water by UV-vis spectrometry; format: functional
[25] = Metal chelating activity of the compound assessed as manganese complex formation in doble-distiled water by UV-vis spectrometry; format: functional
[26] = tested on: A549; assay: Antiproliferative activity against human A549 cells at 2 uM after 96 hrs by MTT assay in presence of ferrous ion; format: functional, cell-based
[27] = tested on: Bel-7402; assay: Antiproliferative activity against human Bel7402 cells at 2 uM after 96 hrs by MTT assay in presence of ferrous ion; format: functional, cell-based
[28] = tested on: HepG2; assay: Antiproliferative activity against human HepG2 cells at 2 uM after 96 hrs by MTT assay in presence of ferrous ion; format: functional, cell-based
[29] = tested on: HeLa; assay: Antiproliferative activity against human HeLa cells at 2 uM after 96 hrs by MTT assay in presence of ferrous ion; format: functional, cell-based
[30] = tested on: MCF7; assay: Antiproliferative activity against human MCF7 cells at 2 uM after 96 hrs by MTT assay in presence of ferrous ion; format: functional, cell-based
[31] = tested on: Jurkat; assay: Antiproliferative activity against human Jurkat cells at 2 uM after 96 hrs by MTT assay in presence of ferrous ion; format: functional, cell-based
[32] = tested on: HT-1080; assay: Antiproliferative activity against human HT1080 cells at 2 uM after 96 hrs by MTT assay in presence of ferrous ion; format: functional, cell-based
[33] = tested on: A-375; assay: Antiproliferative activity against human A375 cells at 2 uM after 96 hrs by MTT assay in presence of ferrous ion; format: functional, cell-based
[34] = tested on: NCI-N87; assay: Antiproliferative activity against human NCI-N87 cells at 2 uM after 96 hrs by MTT assay in presence of ferrous ion; format: functional, cell-based
[35] = tested on: PANC-1; assay: Antiproliferative activity against human PANC1 cells at 2 uM after 96 hrs by MTT assay in presence of ferrous ion; format: functional, cell-based
[36] = tested on: A549; assay: Antiproliferative activity against human A549 cells at 2 uM after 96 hrs by MTT assay in presence of ferric ion; format: functional, cell-based
[37] = tested on: Bel-7402; assay: Antiproliferative activity against human Bel7402 cells at 2 uM after 96 hrs by MTT assay in presence of ferric ion; format: functional, cell-based
[38] = tested on: HepG2; assay: Antiproliferative activity against human HepG2 cells at 2 uM after 96 hrs by MTT assay in presence of ferric ion; format: functional, cell-based

Cc1cc2c(cc(O)c1=O)[C@@]13CCCC(C)(C)[C@@H]1C[C@@H]2OC3 [MILTIPOLONE]
5.95 µM: IC50 [20]
20 µM: IC50 [10]
3.5 µM: IC50 [18]
1.6 µM: IC50 [19]
1.44 µM: IC50 [14]
active: Activity [21] | Activity [22] | Activity [23] | Activity [24] | Activity [25] | Activity [36] | Activity [37] | Activity [38]
1.36 µM: IC50 [17]
2 µM: IC50 [13] | IC50 [15]
inactive: Activity [1] | Activity [2] | Activity [3] | Activity [4] | Activity [5] | Activity [6] | Activity [7] | Activity [8] | Activity [9] | Activity [26] | Activity [27] | Activity [28] | Activity [29] | Activity [30] | Activity [31] | Activity [32] | Activity [33] | Activity [34] | Activity [35]
1.4 µM: IC50 [16]
0.9 µM: IC50 [12]
1.92 µM: IC50 [11]
